Consider four compounds from ChEMBL document CHEMBL1201862, “PubChem BioAssay data set” (2004).

The source made the active and inactive calls. Cut-off read from the data, not from the text of the source, for most assays here: actives have a measured IC50 and inactives only a lower limit.

Common to all, as to format: functional
Assay [1] has as its target T1, Replicative DNA helicase DnaB (Mycobacterium tuberculosis, UniProt P9WMR3).
T1 sequence (P9WMR3 whole entry): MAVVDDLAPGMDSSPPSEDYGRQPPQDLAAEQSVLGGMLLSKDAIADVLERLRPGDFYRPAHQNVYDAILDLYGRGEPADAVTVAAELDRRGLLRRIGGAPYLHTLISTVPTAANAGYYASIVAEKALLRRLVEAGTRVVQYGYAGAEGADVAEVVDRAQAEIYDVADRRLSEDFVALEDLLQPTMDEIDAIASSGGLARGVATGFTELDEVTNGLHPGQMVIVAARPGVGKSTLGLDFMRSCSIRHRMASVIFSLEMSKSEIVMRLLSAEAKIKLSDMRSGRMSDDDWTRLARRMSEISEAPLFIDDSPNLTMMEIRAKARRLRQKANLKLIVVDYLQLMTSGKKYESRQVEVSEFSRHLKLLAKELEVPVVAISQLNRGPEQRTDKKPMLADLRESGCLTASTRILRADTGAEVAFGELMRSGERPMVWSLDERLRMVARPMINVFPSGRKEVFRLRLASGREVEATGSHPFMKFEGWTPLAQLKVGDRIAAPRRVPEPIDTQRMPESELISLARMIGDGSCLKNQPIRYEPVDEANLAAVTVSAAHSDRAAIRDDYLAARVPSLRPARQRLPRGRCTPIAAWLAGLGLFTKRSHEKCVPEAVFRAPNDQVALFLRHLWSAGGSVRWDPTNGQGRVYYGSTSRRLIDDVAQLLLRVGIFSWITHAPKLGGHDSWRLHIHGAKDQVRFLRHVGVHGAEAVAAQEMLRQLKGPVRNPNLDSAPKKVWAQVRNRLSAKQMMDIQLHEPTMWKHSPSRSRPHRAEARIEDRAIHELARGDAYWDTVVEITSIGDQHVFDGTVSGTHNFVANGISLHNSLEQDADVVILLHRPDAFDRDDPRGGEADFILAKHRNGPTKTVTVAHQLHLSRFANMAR
Put plainly: DnaB intein splicing inhibitors, dose response, biochemical, cell-free fluorescence (AID 449749).

The target of assay [2] is T2, Sentrin-specific protease 7 (Homo sapiens, UniProt Q9BQF6).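 Note: Luminescence-based dose-response confirmation of ultra-high-throughput screening hits, measuring inhibition of SENP7.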
T2 sequence (Q9BQF6 whole entry): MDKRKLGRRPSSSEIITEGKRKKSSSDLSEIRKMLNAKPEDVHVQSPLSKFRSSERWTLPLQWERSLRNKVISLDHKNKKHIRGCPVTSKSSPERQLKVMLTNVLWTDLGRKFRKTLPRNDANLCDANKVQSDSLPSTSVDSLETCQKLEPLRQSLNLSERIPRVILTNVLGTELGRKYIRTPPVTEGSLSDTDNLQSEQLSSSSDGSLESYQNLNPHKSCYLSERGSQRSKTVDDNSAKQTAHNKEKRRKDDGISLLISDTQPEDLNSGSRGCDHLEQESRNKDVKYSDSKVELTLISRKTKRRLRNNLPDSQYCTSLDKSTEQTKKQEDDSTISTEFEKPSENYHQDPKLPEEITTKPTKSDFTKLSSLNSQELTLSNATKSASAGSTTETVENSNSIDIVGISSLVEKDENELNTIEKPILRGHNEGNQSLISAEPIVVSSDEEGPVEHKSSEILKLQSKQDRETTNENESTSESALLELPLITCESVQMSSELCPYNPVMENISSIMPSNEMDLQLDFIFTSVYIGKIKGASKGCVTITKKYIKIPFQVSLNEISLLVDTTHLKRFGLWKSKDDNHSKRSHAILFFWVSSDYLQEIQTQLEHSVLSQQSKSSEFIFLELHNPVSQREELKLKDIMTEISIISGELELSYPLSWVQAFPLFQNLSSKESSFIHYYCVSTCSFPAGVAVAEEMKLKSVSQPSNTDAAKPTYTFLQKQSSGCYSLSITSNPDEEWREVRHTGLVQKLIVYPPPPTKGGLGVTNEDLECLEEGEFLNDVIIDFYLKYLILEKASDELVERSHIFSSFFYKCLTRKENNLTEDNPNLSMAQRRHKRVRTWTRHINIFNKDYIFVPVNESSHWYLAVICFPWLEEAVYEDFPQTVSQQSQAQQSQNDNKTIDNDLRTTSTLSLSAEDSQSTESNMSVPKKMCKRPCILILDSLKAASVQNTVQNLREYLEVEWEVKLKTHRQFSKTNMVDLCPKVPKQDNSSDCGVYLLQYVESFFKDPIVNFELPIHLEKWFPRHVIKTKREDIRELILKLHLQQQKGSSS

Assay [3] concerns the target T3, Sentrin-specific protease 6 (Homo sapiens, UniProt Q9GZR1).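 Note: Luminescence-based dose-response confirmatory assay of SENP6 inhibition, following up an ultra-high-throughput screen.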
T3 sequence (Q9GZR1 whole entry): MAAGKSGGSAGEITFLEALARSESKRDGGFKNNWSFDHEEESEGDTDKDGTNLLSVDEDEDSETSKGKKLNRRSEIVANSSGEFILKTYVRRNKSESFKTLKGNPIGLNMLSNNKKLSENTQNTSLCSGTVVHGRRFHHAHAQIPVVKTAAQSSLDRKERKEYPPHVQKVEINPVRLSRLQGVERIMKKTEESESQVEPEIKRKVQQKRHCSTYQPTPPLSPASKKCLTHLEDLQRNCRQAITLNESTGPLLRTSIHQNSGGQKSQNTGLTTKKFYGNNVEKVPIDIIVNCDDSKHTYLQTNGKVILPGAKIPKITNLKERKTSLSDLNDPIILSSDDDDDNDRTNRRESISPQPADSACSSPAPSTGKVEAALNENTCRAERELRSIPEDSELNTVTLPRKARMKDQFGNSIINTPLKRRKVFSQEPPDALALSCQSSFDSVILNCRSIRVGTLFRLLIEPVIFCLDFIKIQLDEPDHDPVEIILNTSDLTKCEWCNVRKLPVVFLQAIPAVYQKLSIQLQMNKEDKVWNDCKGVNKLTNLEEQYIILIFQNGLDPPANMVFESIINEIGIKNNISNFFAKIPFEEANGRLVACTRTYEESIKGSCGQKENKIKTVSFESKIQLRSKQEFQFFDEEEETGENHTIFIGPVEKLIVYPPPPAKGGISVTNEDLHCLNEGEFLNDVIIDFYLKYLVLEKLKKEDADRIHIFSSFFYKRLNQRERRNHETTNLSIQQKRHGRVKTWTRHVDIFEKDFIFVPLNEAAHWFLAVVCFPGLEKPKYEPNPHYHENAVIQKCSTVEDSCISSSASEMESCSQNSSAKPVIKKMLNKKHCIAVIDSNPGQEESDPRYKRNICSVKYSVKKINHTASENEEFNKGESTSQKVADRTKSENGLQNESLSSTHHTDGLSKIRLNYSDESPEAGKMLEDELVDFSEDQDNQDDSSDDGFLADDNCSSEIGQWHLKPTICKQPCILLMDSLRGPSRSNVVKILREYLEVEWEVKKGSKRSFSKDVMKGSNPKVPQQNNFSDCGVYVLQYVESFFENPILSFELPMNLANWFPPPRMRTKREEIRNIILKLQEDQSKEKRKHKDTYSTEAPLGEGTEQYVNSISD

In the case of `COc1ccc(NC(=S)Nc2ccc3nsnc3c2)cc1`, the AC50 in assay [1] is > 120 µM (inactive). Besides, the IC50 in assay [2] is 4.08 µM (active); in assay [3], 2.3 µM (active).
With `CC(C)(C)c1cc[n+](C2=C([N-]S(=O)(=O)c3ccccc3)C(=O)c3ccccc3C2=O)cc1`, in assay [1], the AC50 is 9.28 µM (active). Moreover, the IC50 was 13.5 µM (active) in assay [2] and 8.45 µM (active) in assay [3].
In the same order, the values of `O=C1C(=O)c2ccccc2C(O)=C1CCCCl` are 6.36 µM (active), 9.05 µM (active) and 7.23 µM (active).
The like results for `O=C1C=C(Nc2ccccc2C(=O)O)c2ccccc2C1=O` were, in that order, 2.21 µM (active), 7.86 µM (active) and 2 µM (active).

The AC50 is the concentration giving half of the maximal activity seen. Usually IC50 stands for the concentration that gives 50% inhibition.
